One series relates to mouse erythrocytes. Description: Hemolytic assay. The series is classed as cell-based. Conditions: 12.5 μg/mL; 2.5% (v/v) mouse erythrocytes in PBS, 30 min at 37 °C, absorbance at 540 nm; at least three independent experiments in triplicate. Here is the method:
This experiment was approved by the Institutional Animal Care and Use Committee (IACUC) of the National Institute of Agricultural Sciences (approval number: NAS-202014). The hemolytic activity of the peptides was determined by monitoring the release of hemoglobin from mouse erythrocytes at 540 nm. For the hemolytic assay, 20 μL of each peptide solution at a predetermined concentration was added to 180 μL of a 2.5% (v/v) suspension of mouse erythrocytes in phosphate-buffered saline (PBS). Melittin (Sigma, USA), a hemolytic and α-helical peptide isolated from bee venom, was used as the positive control. This mixture was incubated for 30 min at 37 °C, and 600 μL of PBS was then added to each tube. After 3 min of centrifugation at 10,000× g, the supernatant was removed, and the absorbance was measured at 540 nm. Evaluations were made from the results of at least three independent experiments, each carried out in triplicate.

A further series concerns mammalian cells. The following applies: cited from earlier work. From the text: (§1) Papilio xuthus (P. xuthus), commonly known as the swallowtail butterfly, is found in the far east Asian regions of Korea, Japan, China, Taiwan, and Myanmar. Papiliocin is the 37 residue α-helical cecropin-like AMP isolated from an immune challenged larvae of swallowtail butterfly. […] Additionally, the antibacterial and antifungal activity of papiliocin is observed in multidrug- resistant bacterial and fungal strains, respective ...

The subject of series [1] is Gram-positive and Gram-negative bacteria. The following applies: effect more pronounced in Gram-negative strains; cited from earlier work.
Source text: as §1

For series [2] the following is noted: cited from earlier work.
Source text: as §1

Turning to `CC[C@H](C)[C@H](NC(=O)CN)C(=O)NCC(=O)N[C@@H](C)C(=O)N[C@H](C(=O)N[C@@H](CC(C)C)C(=O)N[C@@H](CCCCN)C(=O)N[C@H](C(=O)N[C@@H](CC(C)C)C(=O)N[C@H](C(=O)N[C@H](C(=O)NCC(=O)N[C@@H](CC(C)C)C(=O)N1CCC[C@H]1C(=O)N[C@@H](C)C(=O)N[C@@H](CC(C)C)C(=O)N[C@H](C(=O)N[C@@H](CO)C(=O)N[C@@H](Cc1c[nH]c2ccccc12)C(=O)N[C@H](C(=O)N[C@@H](CCCCN)C(=O)N[C@@H](CCCNC(=N)N)C(=O)N[C@@H](CCCCN)C(=O)N[C@@H](CCCNC(=N)N)C(=O)N[C@@H](CCC(N)=O)C(=O)N[C@@H](CCC(N)=O)C(N)=O)[C@@H](C)CC)[C@@H](C)CC)[C@@H](C)O)[C@@H](C)O)C(C)C)C(C)C` [Melittin], the “hemolysis of mouse red blood cells” value with mouse erythrocytes was determined as 92%.
Regarding Papiliocin, the “toxicity toward mammalian cells” value in the series with mammalian cells was “non-toxicity toward mammalian cells”. Further, in series [1], the bactericidal activity entry was “bactericidal activity against both Gram-positive and Gram-negative bacteria”. The anti-inflammatory activity entry in series [2] was “anti-inflammatory activity”.

The record behind these values is publication PMC7697948, “Deciphering Novel Antimicrobial Peptides from the Transcriptome of Papilio xuthus” (Insects, 2020).
